From patent publication US20070207160A1, “Apoptosis inhibitors” (priority 1994, published 2007)

Legend:
Format in all cases: cell-based
[1] = test system: L 29-APO-1 cells; experiment: Inhibition of apoptosis induced by an anti-APO-1 antibody using DCI (MTT assay); conditions: DCI 45 μM or 15 μM, 1 hour before anti-APO-1 antibody for 7 hours, FIG. 2B
Experimental: FIG. 2B depicts the inhibition of apoptosis by DCI. L 29-APO-1 cells were incubated with DCI (●45μM, ▴15 μM) or without DCI (◯). After one hour, anti-APO-1 antibody was added in the amounts indicated in FIG. 2B and allowed to remain on the cells for 7 hours. The percentage cell death was determined by formazan production from diphenyltetrazolium salt (MTT assay).

[2] = test system: L 29-APO-1 cells and SKW 6.4 cells; experiment: Inhibition of apoptosis induced by an anti-APO-1 antibody using YVAD-CHO (DNA fragmentation, Hoechst dye 33342, FACS); conditions: permeabilized L 29-APO-1 and SKW 6.4 cells, YVAD-CHO 30 minutes, then anti-APO-1 antibodies 1 μg/ml for 60 minutes; FIG. 2C
Experimental: FIG. 2C depicts the inhibition of apoptosis by YVAD-CHO.
L 29-APO-1 cells (◯) and SKW 6.4 cells (●) were permeabilized by a short hypotonic shock and incubated with the indicated concentrations of YVAD-CHO indicated in FIG. 2C for 30 minutes. The cells were incubated with anti-APO-1 antibodies (1 μg/ml) for 60 minutes. Apoptosis was determined by measuring a DNA fragmentation using the Hoechst dye 33342 (Molecular Probes Eugene, Oreg.). Data of specific cell death (cell death in the presence of an anti-APO-1 antibody minus cell death in the absence of such an antibody) was obtained from triple measurements by using an FACS Vantage flow cytometer. Spontaneous cell death in the absence of an anti-APO-1 antibody was less than 7%.

[3] = test system: SKW 6.4 cells; experiment: Inhibition of apoptosis induced in SKW 6.4 cells by anti-APO-1 antibody; conditions: SKW 6.4 cells incubated with anti-APO-1 antibody (20 ng/ml) and varying amounts of inhibitor for 24 hours, FIG. 1
Experimental: FIG. 1 depicts the inhibition of apoptosis induced in SKW6.4 cells by means of anti-APO-1 antibodies (20 ng/ml) by human APO-1-Ig and anti-APO-1F(ab′)2, respectively.
SKW 6.4 cells (Oehm et al, supra) are apoptosis-positive cells, i.e. apoptosis can be induced therein, e.g. by binding an anti-APO-1 antibody.
SKW 6.4 cells were incubated with an anti-APO-1 antibody in the presence of varying amounts of the fusion protein of Example 1 (human APO-1-Ig) and of anti-APO-1-F(ab)2 (see above), respectively, for 24 hours. The inhibition of apoptosis was determined. See, FIG. 1.

O=c1oc(Cl)c(Cl)c2ccccc12 [DCI, 3,4-dichloroisocoumarin]
inhibition of apoptosis induced by an anti-APO-1 antibody (percentage cell death, MTT assay) [1]: can be inhibited

YVAD-CHO
inhibition of apoptosis induced by an anti-APO-1 antibody (specific cell death, DNA fragmentation) [2]: can be inhibited

B1: fused portion of Example 1: Fusion protein in which an extracellular APO-1 domain is fused via an antibody-hinge region to an Fc portion of a human antibody (protein)
chain: QVTDINSKGLELRKTVTTVETQNLEGLHHDGQFCHKPCPPGERKARDCTVNGDEPDCVPCQEGKEYTDKAHFSSKCRRCRLCDEGHGLEVEINCTRTQNTKCRCKPNFFCNSTVCEHCDPCTKCEHGIIKECTLTSNTKCKEEGSRSN
modifications: left off: a dimerising Fc or GST
notes: Fusion protein in which an extracellular APO-1 domain is fused via an antibody-hinge region to an Fc portion of a human antibody
inhibition of apoptosis [3]: strong apoptosis-inhibiting effect
inhibition of apoptosis ([3]; listed as fusion protein): especially strong
